Data on 28 compounds can be found in patent US20170334899A1, “AMINO-SUBSTITUTED ISOTHIAZOLES” (Bayer Pharma Aktiengesellschaft, priority 2014, published 2017).

A word on the IC50: it is the concentration needed to halve the response being measured.

This experiment relates to human cervical tumor cell line HeLa (ATCC CCL-2). Briefly: SAC-Formation - Nocodazole-Induced Assay. It counts as cell-based. The following applies: Homo sapiens, HeLa, 24 h, HeLa cells, nocodazole 0.1 μg/ml together with test compound, decrease of mitotic cells (phospho-histone H3 Ser10). The procedure, abridged:
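Loss of phospho-histone H3 Ser10-positive cells, counted against Hoechst-stained nuclei by high-content imaging, marked mitotic breakthrough. Compounds (0.005–20 μM, 0.5% DMSO) were co-dosed with 0.1 μg/ml nocodazole onto HeLa cells for 24 h at 37 °C. Curves were fitted with a four-parameter Hill equation.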
On to `Cc1nsc(Nc2cnc3ccccc3n2)c1C(=O)Nc1cccc(C(=O)N2CCN(C(=O)OC(C)(C)C)CC2)c1` [Example 55, tert-Butyl 4-[3-({[3-methyl-5-(quinoxalin-2-ylamino)-1,2-thiazol-4-yl]carbonyl}amino)-benzoyl]piperazine-1-carboxylate], for which the IC50 is 0.93 µM. As to `COCCOc1ccc(NC(=O)c2c(C)nsc2Nc2nc3c(C(F)(F)F)cccc3s2)cn1` [Example 3, N-[6-(2-Methoxyethoxy)pyridin-3-yl]-3-methyl-5-{[4-(trifluoromethyl)-1,3-benzo-thiazol-2-yl]amino}-1,2-thiazole-4-carboxamide], the IC50 was 0.23 µM.

For `Cc1nsc(Nc2cnc3ccccc3n2)c1C(=O)Nc1cccc(NC(=O)C(F)(F)F)c1` [Example 432, 3-Methyl-5-(quinoxalin-2-ylamino)-N-{3-[(trifluoroacetyl)amino]phenyl}-1,2-thiazole-4-carboxamide], the IC50 stood at 0.17 µM. To `Cc1nsc(Nc2cnc(C(F)(F)F)cn2)c1C(=O)Nc1ccc(OCCN2CCC(F)(F)CC2)nc1` [Example 407, N-{6-[2-(4,4-Difluoropiperidin-1-yl)ethoxy]pyridin-3-yl}-3-methyl-5-{[5-(trifluoromethyl)pyrazin-2-yl]amino}-1,2-thiazole-4-carboxamide] belongs 0.039 µM; to `Cc1nsc(Nc2cnc3ccccc3n2)c1C(=O)Nc1ccc(OCCCNC(=O)OC(C)(C)C)nc1` [Example 42, tert-Butyl (3-{[5-({[3-methyl-5-(quinoxalin-2-ylamino)-1,2-thiazol-4-yl]carbonyl}-amino)pyridin-2-yl]oxy}propyl)carbamate], 0.82 µM. On to `Cc1nsc(Nc2cnc(C(F)(F)F)cn2)c1C(=O)Nc1ccc(OCCN(C)C(=O)OC(C)(C)C)nc1` [Example 429, tert-Butyl methyl{2-[(5-{[(3-methyl-5-{[5-(trifluoromethyl)pyrazin-2-yl]amino}-1,2-thiazol-4-yl)carbonyl]amino}pyridin-2-yl)oxy]ethyl}carbannate], for which the 50% inhibitory concentration (IC50) stood at 0.016 µM. To `Cc1nsc(Nc2cnc(C(F)(F)F)cn2)c1C(=O)Nc1ccc(CCC2CCN(CCC(F)(F)F)CC2)nc1` [Example 420, 3-Methyl-5-{[5-(trifluoromethyl)pyrazin-2-yl]amino}-N-(6-{2-[1-(3,3,3-trifluoro-propyl)piperidin-4-yl]ethyl}pyridin-3-yl)-1,2-thiazole-4-carboxamide] belongs 0.12 µM; to `Cc1nsc(Nc2cnc3ccccc3n2)c1C(=O)Nc1cccc(C(=O)N[C@H](C(=O)OC(C)(C)C)[C@@H](C)OC(C)(C)C)c1` [Example 57, tert-Butyl O-tert-butyl-N-[3-({[3-methyl-5-(quinoxalin-2-ylamino)-1,2-thiazol-4 yl]carbonyl}amino)-benzoyl]threoninate], 0.34 µM. The same measure for `Cc1nsc(Nc2cnc(C(F)(F)F)cn2)c1C(=O)Nc1ccc(OC2CCN(C(=O)OC(C)(C)C)CC2)nc1` [Example 5, tert-Butyl 4-[(5-{[(3-methyl-5-{[5-(trifluoromethyl)pyrazin-2-yl]amino}-1,2-thiazol-4-yl)carbonyl]amino}pyridin-2-yl)oxy]piperidine-1-carboxylate]: 0.043 µM; for `Cc1nsc(Nc2ccc(C#N)cn2)c1C(=O)Nc1ccc(OC2CCCN(CCF)C2)nc1` (stereo not shown) [Example 38, 5-[(5-Cyanopyridin-2-yl)amino]-N-(6-{[1-(2-fluoroethyl)piperidin-3-yl]oxy}pyridin-3-yl)-3-methyl-1,2-thiazole-4-carboxamide]: 1.8 µM; for `COCCOc1ccc(NC(=O)c2c(C)nsc2Nc2nc3c(C(F)(F)F)cccc3s2)cc1F` [Example 1, N-[3-Fluoro-4-(2-methoxyethoxy)phenyl]-3-methyl-5-{[4-(trifluoromethyl)-1,3-benzothiazol-2-yl]amino}-1,2-thiazole-4-carboxamide]: 0.072 µM. To `Cc1nsc(Nc2cnc(C(F)(F)F)cn2)c1C(=O)Nc1ccc(F)c(OCCCNC(=O)C(F)(F)F)c1` [Example 427, N-(4-Fluoro-3-{3-[(trifluoroacetyl)amino]propoxy}phenyl)-3-methyl-5-{[5-(trifluoro-methyl)pyrazin-2-yl]amino}-1,2-thiazole-4-carboxamide] belongs 0.7 µM; to `Cc1nsc(Nc2cc(C#N)ccn2)c1C(=O)Nc1ccc(OC2CCCNC2)nc1` (stereo not shown) [Example 35, 5-[(4-Cyanopyridin-2-yl)amino]-3-methyl-N-[6-(piperidin-3-yloxy)pyridin-3-yl]-1,2-thiazole-4-carboxamide], 15 µM; to `Cc1nsc(Nc2cnccn2)c1C(=O)Nc1ccc(OCCCNC(=O)OC(C)(C)C)nc1` [Example 47, tert-Butyl (3-{[5-({[3-methyl-5-(pyrazin-2-ylamino)-1,2-thiazol-4-yl]carbonyl}-amino)pyridin-2-yl]oxy}propyl)carbamate], 3.6 µM. Turning to `Cc1nsc(Nc2cnc(C(F)(F)F)cn2)c1C(=O)Nc1ccc(OCCCNC(=O)C(F)(F)F)nc1` [Example 428, 3-Methyl-N-(6-{3-[(trifluoroacetyl)amino]propoxy}pyridin-3-yl)-5-{[5-(trifluoro-methyl)pyrazin-2-yl]amino}-1,2-thiazole-4-carboxamide], the half-inhibitory concentration (IC50) was determined as 0.89 µM.

For the compound `Cc1nsc(Nc2cnc(C(F)(F)F)cn2)c1C(=O)Nc1ccc(F)c(O[C@H]2CCN(CC(F)(F)F)C2)c1` [Example 416, N-(4-Fluoro-3-{[(35)-1-(2,2,2-trifluoroethyl)pyrrolidin-3-yl]oxy}phenyl)-3-methyl-5-{[5-(trifluoromethyl)pyrazin-2-yl]amino}-1,2-thiazole-4-carboxamide], the IC50 is 0.0042 µM. To `Cc1nsc(Nc2ccc(C#N)cn2)c1C(=O)Nc1ccc(OC2CCCNC2)nc1` (stereo not shown) [Example 37, 5-[(5-Cyanopyridin-2-yl)amino]-3-methyl-N-[6-(piperidin-3-yloxy)pyridin-3-yl]-1,2-thiazole-4-carboxamide] belongs 4.2 µM; to `Cc1nsc(Nc2cnc3ccccc3n2)c1C(=O)Nc1cccc(C(=O)OC(C)(C)C)c1` [Example 49, tert-Butyl 3-({[3-methyl-5-(quinoxalin-2-ylamino)-1,2-thiazol-4-yl]carbonyl}amino)-benzoate], 0.029 µM; to `Cc1nsc(Nc2nc3c(C(F)(F)F)cccc3s2)c1C(=O)Nc1ccc(OCCO)nc1` [Example 2, N-[6-(2-Hydroxyethoxy)pyridin-3-yl]-3-methyl-5-{[4-(trifluoromethyl)-1,3-benzo-thiazol-2-yl]amino}-1,2-thiazole-4-carboxamide], 0.56 µM. The same measure for `Cc1nsc(Nc2cnc(C(F)(F)F)cn2)c1C(=O)Nc1ccc(OCC2CCN(CCC(F)(F)F)CC2(F)F)nc1` (stereo not shown) [Example 402, N-(6-{[3,3-difluoro-1-(3,3,3-trifluoropropyl)piperidin-4-yl]methoxy}pyridin-3-yl)-3-methyl-5-{[5-(trifluoromethyl)pyrazin-2-yl]amino}-1,2-thiazole-4-carboxamide]: 1.2 µM; for `Cc1nsc(Nc2cnc(C(F)(F)F)cn2)c1C(=O)Nc1ccc(OC[C@H]2CCN(CC(F)(F)F)C2)nc1` [Example 404, 3-Methyl-N-(6-{[(3S)-1-(2,2,2-trifluoroethyl)pyrrolidin-3-yl]methoxy}pyridin-3-yl)-5-{[5-(trifluoromethyl)pyrazin-2-yl]amino}-1,2-thiazole-4-carboxamide]: 0.063 µM. The same measure for `Cc1nsc(Nc2cnc(C(F)(F)F)cn2)c1C(=O)Nc1ccc(F)c(O[C@@H]2CCN(CCC(F)(F)F)C2)c1` [Example 414, N-(4-Fluoro-3-{[(3R)-1-(3,3,3-trifluoropropyl)pyrrolidin-3-yl]oxy}phenyl)-3-methyl-5-{[5-(trifluoromethyl)pyrazin-2-yl]amino}-1,2-thiazole-4-carboxamide]: 0.039 µM.

As to `Cc1nsc(Nc2cnc(C(F)(F)F)cn2)c1C(=O)Nc1ccc(O[C@@H]2CN(CC(F)F)C[C@@H]2F)nc1` [Example 411, N-(6-{[(3R,4S)-1-(2,2-Difluoroethyl)-4-fluoropyrrolidin-3-yl]oxy}pyridin-3-yl)-3-methyl-5-{[5-(trifluoromethyl)pyrazin-2-yl]amino}-1,2-thiazole-4-carboxamide], the concentration for half-maximal inhibition (IC50) worked out at 0.024 µM. The same measure for `Cc1nsc(Nc2ccc(C#N)cn2)c1C(=O)Nc1ccc(OC2CCCN(CC(F)(F)F)C2)nc1` (stereo not shown) [Example 40, 5-[(5-Cyanopyridin-2-yl)amino]-3-methyl-N-(6-{[1-(2,2,2-trifluoroethyl)piperidin-3-yl]oxy}pyridin-3-yl)-1,2-thiazole-4-carboxamide]: 0.15 µM; for `Cc1nsc(Nc2ccc(C#N)cn2)c1C(=O)Nc1ccc(Nc2ccc(F)c(F)c2)nc1` [Example 433, 5-[(5-Cyanopyridin-2-yl)amino]-N-{6-[(3,4-difluorophenyl)amino]pyridin-3-yl}-3-methyl-1,2-thiazole-4-carboxamide]: 0.21 µM.

Consider `Cc1nsc(Nc2cnc3ccccc3n2)c1C(=O)Nc1ccc(NCCN(C)C(=O)OC(C)(C)C)nc1` [Example 434, tert-Butyl methyl(2-{[5-({[3-methyl-5-(quinoxalin-2-ylamino)-1,2-thiazol-4-yl]carbonyl}amino)pyridin-2-yl]amino}ethyl)carbamate], for which the concentration for half-maximal inhibition (IC50) came out at 0.97 µM.

In the case of `Cc1nsc(Nc2nc3c(C(F)(F)F)cccc3s2)c1C(=O)Nc1ccc(OCCO)c(F)c1` [Example 4, N-[3-Fluoro-4-(2-hydroxyethoxy)phenyl]-3-methyl-5-{[4-(trifluoromethyl)-1,3-benzothiazol-2-yl]amino}-1,2-thiazole-4-carboxamide], the IC50 turned out to be 0.98 µM. The same measure for `Cc1nsc(Nc2cnc(C(F)(F)F)cn2)c1C(=O)Nc1ccc(F)c(O[C@H]2CCN(CCC(F)(F)F)C2)c1` [Example 415, N-(4-Fluoro-3-{[(3S)-1-(3,3,3-trifluoropropyl)pyrrolidin-3-yl]oxy}phenyl)-3-methyl-5-{[5-(trifluoromethyl)pyrazin-2-yl]amino}-1,2-thiazole-4-carboxamide]: 0.018 µM.
